# Assay results as given in ChEMBL document CHEMBL1201862, “PubChem BioAssay data set” (2004).
# Active and inactive are the calls of the source.
# How the values were obtained:
# [1] = molecular target: T1, Heat shock factor protein 1 (Mus musculus, UniProt P38532); experiment: enhancement of HSF1-driven luciferase signal – cell-based, NIH3T3, luminescence, dose retest, confirmation (AID 435004); assay type: functional;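 further: stress induced by proteasome inhibitor MG132 added 30 min after compound; luciferase reporter driven by HSF1 response element in NIH3T3 cells; actives raise luminescence as potentiators of the MG132 stress response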
# T1 sequence (P38532 whole entry): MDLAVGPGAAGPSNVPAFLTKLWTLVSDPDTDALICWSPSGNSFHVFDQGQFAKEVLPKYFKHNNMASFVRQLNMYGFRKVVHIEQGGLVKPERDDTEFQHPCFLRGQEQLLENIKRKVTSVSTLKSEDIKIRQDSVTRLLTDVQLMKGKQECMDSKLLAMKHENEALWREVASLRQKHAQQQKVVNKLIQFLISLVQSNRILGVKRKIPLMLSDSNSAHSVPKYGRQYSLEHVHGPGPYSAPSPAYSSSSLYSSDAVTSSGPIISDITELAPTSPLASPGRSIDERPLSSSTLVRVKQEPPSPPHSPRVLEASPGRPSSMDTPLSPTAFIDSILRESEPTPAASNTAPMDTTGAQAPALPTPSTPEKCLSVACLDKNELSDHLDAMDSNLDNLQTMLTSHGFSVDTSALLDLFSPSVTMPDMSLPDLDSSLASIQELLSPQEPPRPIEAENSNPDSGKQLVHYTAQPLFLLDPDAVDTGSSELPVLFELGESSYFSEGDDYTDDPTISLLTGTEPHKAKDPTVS
# [2] = P. falciparum Dd2 growth inhibitors, dose response, SYBR Green, cherry-picked samples (AID 1159567); assay type: functional, cell-based
# [3] = Luminescence Cell-Based Dose Retest to Confirm Inhibitors of Cancer Stem Cells. [Related pubchem assays (depositor defined):AID2717, AID2721]; assay type: functional; conditions: Homo sapiens
# [4] = reduction of Shn3 3'UTR-driven luciferase in osteoblasts – cell-based, Clone20 osteoblasts, firefly luciferase, cherry-picked, dose response (AID 624132); assay type: functional;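 further: firefly luciferase luminescence from reporter carrying the Shn3 3'UTR in osteoblasts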
# [5] = loss of viability in HepG2 cells – cell-based, CellTiter-Glo, cherry-picked, cytotoxicity control for Shn3 inhibitor project, dose response (AID 624134); assay type: functional
# [6] = non-specific 3'UTR reporter inhibition in Clone20-Shn3RL – cell-based, Renilla luciferase, cherry-picked, counter-screen for Shn3 inhibitor project, dose response (AID 624133); assay type: functional
# [7] = viability of PTEN-deleted HCT116 cells – cell-based, HCT116 PTEN knockout, dose response (AID 1047); assay type: functional;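 further: HCT116 colon tumor cells with PTEN knocked out; cells exposed to compound for 60 hours before readout; potency for loss of cell viability measured by luminescence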
# [8] = viability of HCT116 lacking mutant beta-catenin – cell-based, human colon tumor, dose response (AID 1045); assay type: functional;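 further: HCT116 colon tumor cells with beta catenin knocked out; cells exposed to compound for 60 hours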
# [9] = Trypanosoma cruzi growth suppression in host cells – NIH3T3 host cells, beta-gal luminescence, confirmation (AID 2044); assay type: functional, cell-based;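 further: intracellular parasites grown in NIH/3T3 mouse fibroblasts as host cells; luminescent beta-galactosidase reporter signal from transgenic T. cruzi replicating inside host cells; inhibitors lower the luminescence signal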
# [10] = NIH3T3 cell viability loss – ATP luminescence, mouse fibroblasts, counter-screen, dose response (AID 2010); assay type: functional, cell-based;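 further: cells exposed to compound for about 90 hours before reading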
# [11] = molecular target: T2, Polyadenylate-binding protein 1 (Homo sapiens, UniProt P11940); experiment: MLLE binding blockers, Cy5 peptide tracer – biochemical, fluorescence polarization, Cy5-PAM2 peptide, secondary, miRNA deadenylation inhibitor project, dose response (AID 602260); assay type: functional; conditions: read-out: IC50_Mean
# [12] = molecular target: T2, Polyadenylate-binding protein 1; experiment: MLLE domain peptide-binding blockers, IC50 – biochemical, fluorescence polarization, FITC-PAM2 peptide, dose response (AID 602259); assay type: functional; conditions: read-out: IC50_Mean
# [13] = molecular target: T3, Carboxy-terminal domain RNA polymerase II polypeptide A small phosphatase 1 (Homo sapiens, UniProt Q9GZU7); experiment: CTDSP1 inhibitors, concentration-response, biochemical, absorbance readout, ultra-high-throughput screen actives (AID 540297); assay type: functional
# T3 sequence (Q9GZU7 whole entry): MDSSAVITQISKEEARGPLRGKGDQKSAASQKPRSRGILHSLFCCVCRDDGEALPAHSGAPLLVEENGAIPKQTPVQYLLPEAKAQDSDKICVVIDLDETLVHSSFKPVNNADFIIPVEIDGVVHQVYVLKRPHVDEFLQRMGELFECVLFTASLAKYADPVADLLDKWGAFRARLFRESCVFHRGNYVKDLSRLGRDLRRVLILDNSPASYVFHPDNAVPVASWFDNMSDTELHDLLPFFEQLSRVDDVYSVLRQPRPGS
# Cytochrome P450 3A4 = Cytochrome P450 3A4 (Homo sapiens, UniProt P08684);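 further: CYP3A4 tested as one member of a cytochrome P450 panel screen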
# Cytochrome P450 2C9 = Cytochrome P450 2C9 (Homo sapiens, UniProt P11712)
# Genome polyprotein = Genome polyprotein (dengue virus type 2, UniProt P29990); experiment: flavivirus cap methylation enzyme inhibition – biochemical, confirmation dose response, primary screen (AID 588689); assay type: functional
# Protein RecA = molecular target: T4, Protein RecA (Mycobacterium tuberculosis, UniProt P9WHJ3); experiment: Fluorescence Cell-Free Homogeneous Dose Retest to Identify Inhibitors of RecA-Intein Splicing Activity. [Related pubchem assays (depositor defined):AID2097, AID2223, AID489010, AID492950]; assay type: functional
# T4 sequence (P9WHJ3 whole entry): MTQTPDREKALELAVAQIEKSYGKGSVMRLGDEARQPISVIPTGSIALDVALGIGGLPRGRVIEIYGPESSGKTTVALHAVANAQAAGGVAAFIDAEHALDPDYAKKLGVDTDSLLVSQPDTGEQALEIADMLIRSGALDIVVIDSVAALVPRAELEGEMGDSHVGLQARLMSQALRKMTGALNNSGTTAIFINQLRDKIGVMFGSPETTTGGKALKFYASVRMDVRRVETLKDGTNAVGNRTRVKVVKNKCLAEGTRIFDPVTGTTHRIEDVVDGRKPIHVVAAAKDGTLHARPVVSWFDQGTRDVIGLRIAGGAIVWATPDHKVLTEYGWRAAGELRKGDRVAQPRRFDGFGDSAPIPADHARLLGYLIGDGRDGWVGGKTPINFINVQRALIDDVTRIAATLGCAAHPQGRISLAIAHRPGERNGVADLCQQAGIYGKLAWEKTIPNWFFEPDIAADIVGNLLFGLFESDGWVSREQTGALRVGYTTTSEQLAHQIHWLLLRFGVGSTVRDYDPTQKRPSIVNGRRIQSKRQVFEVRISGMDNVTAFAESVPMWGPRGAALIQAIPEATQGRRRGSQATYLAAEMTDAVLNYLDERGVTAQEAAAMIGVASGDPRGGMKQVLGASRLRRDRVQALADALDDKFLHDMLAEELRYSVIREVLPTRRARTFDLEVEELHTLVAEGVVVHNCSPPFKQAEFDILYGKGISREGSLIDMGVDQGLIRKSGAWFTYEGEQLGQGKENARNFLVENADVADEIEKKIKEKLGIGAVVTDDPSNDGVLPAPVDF
# [14] = molecular target: T1, Heat shock factor protein 1; experiment: decrease of HSF1-responsive luciferase luminescence – cell-based, NIH3T3, dose retest, confirmation (AID 2382); assay type: functional;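 further: NIH3T3 fibroblasts with HSF1-driven luciferase reporter stressed by proteasome inhibitor MG132; luminescence from HSF1-driven luciferase expression after 8 hours of MG132 stress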
# H9c2 = experiment: cells; assay type: functional, cell-based; conditions: Rattus norvegicus, H9c2, Myocardium;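 further: confirmatory concentration-response retest of ultra-high-throughput screening hits for modulation of myocardial damage; cell death induced by hydrogen peroxide oxidative stress; compound pretreatment for 60 min then peroxide exposure for 2 h; potency is for protecting the cells against peroxide damage rather than for killing them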
# [15] = molecular target: FAD-linked sulfhydryl oxidase ALR (Homo sapiens, UniProt P55789); experiment: ALR-catalysed DTT oxidation blockers – biochemical, H2O2 detection, luminescence, cherry-pick, dose response (AID 493248)
# INS1 = experiment: INS-1E survival protection against cytokine death – cell-based, luminescence, retest, dose response (AID 449756); assay type: functional; conditions: Rattus norvegicus;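 further: cell death triggered by IL-1 beta plus TNF-alpha plus IFN-gamma mixture; protective hits raise ATP signal compared with cytokine alone wells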
# T2 sequence (P11940 whole entry, the tested form may be a part): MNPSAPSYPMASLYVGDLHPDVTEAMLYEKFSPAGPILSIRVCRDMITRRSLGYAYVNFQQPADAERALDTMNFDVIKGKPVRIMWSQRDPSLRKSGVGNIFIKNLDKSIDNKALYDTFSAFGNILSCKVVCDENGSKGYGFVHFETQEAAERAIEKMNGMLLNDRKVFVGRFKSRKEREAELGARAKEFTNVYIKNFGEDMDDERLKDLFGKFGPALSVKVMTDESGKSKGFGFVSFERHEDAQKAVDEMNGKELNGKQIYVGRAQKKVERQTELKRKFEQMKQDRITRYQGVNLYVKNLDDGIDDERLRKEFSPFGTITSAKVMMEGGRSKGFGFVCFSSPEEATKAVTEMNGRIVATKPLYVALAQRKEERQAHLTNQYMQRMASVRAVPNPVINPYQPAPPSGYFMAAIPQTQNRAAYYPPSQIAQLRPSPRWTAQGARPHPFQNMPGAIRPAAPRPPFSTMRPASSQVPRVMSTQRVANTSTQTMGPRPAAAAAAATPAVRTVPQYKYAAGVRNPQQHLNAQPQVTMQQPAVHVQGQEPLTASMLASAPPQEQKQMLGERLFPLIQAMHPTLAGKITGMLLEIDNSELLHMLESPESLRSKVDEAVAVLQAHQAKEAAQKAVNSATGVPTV
# Cytochrome P450 2C9, sequence (P11712 whole entry): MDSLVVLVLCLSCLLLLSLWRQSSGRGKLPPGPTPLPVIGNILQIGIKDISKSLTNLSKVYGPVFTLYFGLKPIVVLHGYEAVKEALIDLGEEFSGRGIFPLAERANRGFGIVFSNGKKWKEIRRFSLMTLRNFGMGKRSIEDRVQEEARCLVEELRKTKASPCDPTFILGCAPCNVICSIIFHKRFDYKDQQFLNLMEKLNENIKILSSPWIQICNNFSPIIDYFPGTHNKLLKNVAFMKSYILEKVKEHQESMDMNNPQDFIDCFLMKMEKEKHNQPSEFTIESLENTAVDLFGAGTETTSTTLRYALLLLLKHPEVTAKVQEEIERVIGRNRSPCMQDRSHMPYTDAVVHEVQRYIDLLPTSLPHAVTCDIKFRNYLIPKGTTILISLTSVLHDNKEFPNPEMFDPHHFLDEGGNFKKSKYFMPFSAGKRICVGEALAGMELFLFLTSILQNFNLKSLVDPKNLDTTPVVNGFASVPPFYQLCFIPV
# Genome polyprotein, sequence (P29990 2492-3391 limits assumed): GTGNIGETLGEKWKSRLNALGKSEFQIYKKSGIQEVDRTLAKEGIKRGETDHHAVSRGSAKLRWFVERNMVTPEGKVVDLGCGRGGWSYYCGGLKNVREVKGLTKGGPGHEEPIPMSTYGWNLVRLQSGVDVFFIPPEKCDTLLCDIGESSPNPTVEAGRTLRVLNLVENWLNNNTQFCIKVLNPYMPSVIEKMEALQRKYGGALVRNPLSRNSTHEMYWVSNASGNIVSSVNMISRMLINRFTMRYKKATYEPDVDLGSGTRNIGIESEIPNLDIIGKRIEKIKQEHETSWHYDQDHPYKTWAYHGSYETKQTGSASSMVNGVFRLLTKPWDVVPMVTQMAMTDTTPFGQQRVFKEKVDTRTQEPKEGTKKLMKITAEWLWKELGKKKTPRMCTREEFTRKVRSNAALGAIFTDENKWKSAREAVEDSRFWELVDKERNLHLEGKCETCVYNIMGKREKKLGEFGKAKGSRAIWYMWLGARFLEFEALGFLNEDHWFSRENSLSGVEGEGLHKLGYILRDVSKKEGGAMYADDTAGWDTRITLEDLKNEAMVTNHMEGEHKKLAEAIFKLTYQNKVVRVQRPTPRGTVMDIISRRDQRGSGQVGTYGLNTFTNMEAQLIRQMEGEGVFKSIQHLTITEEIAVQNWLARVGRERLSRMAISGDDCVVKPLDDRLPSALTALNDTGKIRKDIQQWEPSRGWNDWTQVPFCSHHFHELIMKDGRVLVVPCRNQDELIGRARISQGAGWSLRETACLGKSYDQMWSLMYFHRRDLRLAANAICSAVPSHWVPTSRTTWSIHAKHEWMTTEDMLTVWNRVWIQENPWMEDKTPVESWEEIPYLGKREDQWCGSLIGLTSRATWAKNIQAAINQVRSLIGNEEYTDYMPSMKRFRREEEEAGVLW
# Cytochrome P450 3A4, sequence (P08684 whole entry): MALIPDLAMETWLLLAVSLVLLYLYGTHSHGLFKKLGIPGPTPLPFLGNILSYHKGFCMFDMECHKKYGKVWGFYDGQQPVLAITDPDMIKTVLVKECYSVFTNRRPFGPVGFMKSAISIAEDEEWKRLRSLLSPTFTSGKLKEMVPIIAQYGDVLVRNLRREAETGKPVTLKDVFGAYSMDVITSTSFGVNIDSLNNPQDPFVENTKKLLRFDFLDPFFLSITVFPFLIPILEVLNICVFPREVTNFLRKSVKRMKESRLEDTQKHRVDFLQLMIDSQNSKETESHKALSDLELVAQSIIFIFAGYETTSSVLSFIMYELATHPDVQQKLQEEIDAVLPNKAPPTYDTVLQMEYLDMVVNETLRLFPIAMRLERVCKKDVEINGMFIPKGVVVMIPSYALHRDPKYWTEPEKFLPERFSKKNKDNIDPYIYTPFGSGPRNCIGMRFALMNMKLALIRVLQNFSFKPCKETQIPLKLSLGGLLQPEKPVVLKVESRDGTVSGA
# FAD-linked sulfhydryl oxidase ALR, sequence (P55789 whole entry): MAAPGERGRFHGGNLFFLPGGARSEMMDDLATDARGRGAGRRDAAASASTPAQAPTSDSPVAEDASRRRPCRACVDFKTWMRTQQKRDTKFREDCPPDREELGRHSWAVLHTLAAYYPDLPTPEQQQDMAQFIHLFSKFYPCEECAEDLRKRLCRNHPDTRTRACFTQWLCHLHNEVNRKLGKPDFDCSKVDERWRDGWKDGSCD
compound,measurement,setting,value
NC(=O)c1nsc(C(=O)N(c2ccccc2)C(C(=O)NCC2CCCO2)c2cccs2)c1N (configuration not stated),EC50,[1],> 260 µM (inactive)
COCC(=O)N1CCC2(CC1)CN(Cc1cccc(OC)c1)[C@@H](CO)c1[nH]c3cc(OC)ccc3c12,AC50,[2],7.42 µM (active)
CC(C)C[C@@H](CO)N(Cc1ccccc1)S(=O)(=O)N(Cc1ccccc1)[C@@H](CO)CC(C)C,AC50,[3],4.21 µM (active)
same,AC50,[4],11.4 µM (active)
same,AC50,[5],21.9 µM (active)
same,AC50,[6],31 µM (active)
C=CCNCCOCCSc1ccc(Cl)cc1,EC50,[1],> 260 µM (inactive)
CCC(Sc1nnc2c3ccccc3n(CC)c2n1)C(=O)Nc1sc2c(c1C#N)CCCC2 (configuration not stated),EC50,[7],11.7 µM (active)
same,EC50,[8],10.4 µM (active)
CCCCCn1c(N)c(-c2nc3ccccc3s2)c2c([N+](=O)[O-])nn(C)c(=O)c21,EC50,[9],2.14 µM (active)
same,EC50,[7],10.1 µM (active)
same,EC50,[10],> 60 µM (not active)
same,EC50,[8],12.5 µM (active)
Cc1ccc(NC(=O)CSC2=NCCN2)cc1,IC50,[11],> 66 µM (inactive)
same,IC50,[12],> 66 µM (inactive)
COc1ccc(CN(C)C[C@@H]2Oc3c(NC(=O)c4ccc(-c5nccs5)cc4)cccc3C(=O)N([C@@H](C)CO)C[C@H]2C)cc1,AC50,[2],3.25 µM (active)
COC(=O)c1ccc(/C=N/NC(=O)c2cccc(F)c2)cc1,IC50,[13],11.4 µM (active)
O=c1cnc2cnc(N3CCOCC3)nc2n1C[C@H]1CCCO1,AC50,Cytochrome P450 3A4,15.8 µM (inconclusive)
same,AC50,Cytochrome P450 2C9,inconclusive
COc1cccc(-c2ccc3c(c2)[C@@H]2[C@@H](CCN2C(=O)C2CCCC2)[C@H](CO)N3)c1,AC50,[2],4.88 µM (active)
CC(=O)c1c(S)nc(-c2ccccc2)nc1NC(=O)c1ccccc1,IC50,[11],> 66 µM (inactive)
same,IC50,[12],> 66 µM (inactive)
CS(=O)(=O)N(CC(=O)N1CCN(Cc2ccc3c(c2)OCO3)CC1)Cc1ccc(Cl)cc1,EC50,[7],497 µM (active)
same,EC50,[8],77.1 µM (active)
COc1ccc(-c2nc3c(c4nnc(SC(C)C(=O)Nc5ccccc5)n24)COC(C)(C)C3)cc1 (configuration not stated),EC50,[7],9.44 µM (active)
same,EC50,[8],8.77 µM (active)
CN(C)Cc1ccccc1-c1cc(NC2CC2)ncn1,AC50,Cytochrome P450 2C9,inconclusive
CC1CN(C(=O)CS(=O)(=O)Cc2ccccc2)CC(C)O1 (configuration not stated),EC50,[1],> 260 µM (inactive)
CO[C@@H]1CN(C)C(=O)c2ccc(NC(=O)C3CC3)cc2OC[C@@H](C)N(Cc2ccccc2)C[C@H]1C,AC50,[2],3.33 µM (active)
C=CCOc1ccc(CNC(C)(C)CO)cc1OCC.Cl,AC50,Cytochrome P450 2C9,inconclusive
C#CCOc1ccccc1/C=C1/C(=O)ON=C1C,IC50,Genome polyprotein,> 100 µM (active)
c1ccc(CN=C(NCc2ccccc2)NCc2ccccc2)cc1,AC50,[4],1.79 µM (active)
same,AC50,[5],21.9 µM (active)
same,AC50,[6],2.06 µM (active)
Cc1cc(O)c2c(c1)C(=O)[C@@]13Oc4c5c(c(O)c6c(O)cc(C)cc46)C(=O)C[C@H](O)[C@H]5[C@@H]1[C@@H](O)CC(=O)C3=C2O,IC50,Genome polyprotein,16.7 µM (active)
O=C(CN1C(=O)NC2(CCCC2)C1=O)OCc1cc(=O)n2cc(Br)ccc2n1,IC50,[13],6.81 µM (active)
CC(NC(=O)c1cccs1)C(S)c1ccccc1 (configuration not stated),IC50,[11],> 66 µM (inactive)
same,IC50,[12],> 66 µM (inactive)
Cc1sc(NC(=O)CCl)c(C(=O)c2ccccc2)c1C,EC50,Protein RecA,3.55 µM (active)
same,IC50,[11],> 66 µM (inactive)
same,IC50,[12],> 66 µM (inactive)
Cc1[nH]n(C(N)=S)c(=O)c1/N=N/c1ccc(S(=O)(=O)N2CCCC2)cc1,IC50,[11],> 66 µM (inactive)
same,IC50,[12],> 66 µM (inactive)
c1ccc(SCCOCCN2CCOCC2)cc1,EC50,[1],> 260 µM (inactive)
CCNc1nc(NCC)n2c(SCC(=O)Nc3ccc(F)cc3)nnc2n1,IC50,[13],10.3 µM (active)
COc1ccc(/C=C/C(=O)C23CC4CC(CC(C4)C2)C3)cc1CN1CCOCC1,EC50,[1],46 µM (active)
O=C(CCc1nc(O)c2ccccc2n1)NCc1ccco1,EC50,[14],> 195 µM (not active)
same,IC50,H9c2,> 79 µM (inactive)
Cc1cc(C(=O)CSc2nc(N)cc(O)n2)c(C)n1-c1cccc(F)c1,AC50,[4],1.66 µM (active)
same,AC50,[5],> 70 µM (inactive)
same,AC50,[6],26.2 µM (active)
O=C(O)Cn1c2ccccc2c2nnc(S)nc21,IC50,[11],> 66 µM (inactive)
same,IC50,[12],> 66 µM (inactive)
Cc1cc(=O)oc2cc(NC(=O)c3cccc(F)c3)ccc12,IC50,[13],4.51 µM (active)
COc1cccc(NC(=O)N2[C@@H](CO)[C@@H](c3ccccc3)[C@@H]2CNC(C)C)c1,AC50,[2],5.06 µM (active)
O=C1CC(NNc2ccccc2)C(=O)N1c1ccccc1 (configuration not stated),EC50,[1],> 260 µM (inactive)
same,AC50,[15],0.382 µM (active)
O=C1CSC(=S)N1/N=C/c1cccnc1,IC50,[11],> 66 µM (inactive)
same,IC50,[12],> 66 µM (inactive)
CCOC(=O)C(C(=O)OCC)C(Nc1ccc(Br)cc1)c1ccccc1 (configuration not stated),EC50,[7],276 µM (active)
same,AC50,[3],8.85 µM (active)
same,EC50,[1],15.2 µM (active)
CSc1ccc(C2C(C#N)=C(N)N(c3ccccc3)C3=C2C(=O)CCC3)cc1 (configuration not stated),EC50,[1],27 µM (active)
COCC(C)NC(=O)/C(=C/c1ccccc1)c1ccccc1 (configuration not stated),EC50,[1],> 260 µM (inactive)
COCCCNc1nc2ccccc2nc1NS(=O)(=O)c1cccc(Cl)c1,IC50,[11],> 66 µM (inactive)
same,IC50,[12],> 66 µM (inactive)
CC(C)c1ccc(NC(=O)Nc2nc(C(N)CCc3ccccc3)cs2)cc1 (configuration not stated),AC50,[4],5.36 µM (active)
same,AC50,[5],10.6 µM (active)
same,AC50,[6],10.3 µM (active)
CCOC(=O)c1c(C)c(C(=O)Nc2ccc3c(c2)OCO3)c(C)n1C,EC50,[1],> 260 µM (inactive)
CCN(CC)CCNc1ncnc2c1sc1nc(N3CCOCC3)c3c(c12)CC(C)(C)SC3,EC50,[7],8.46 µM (active)
same,EC50,[8],7.85 µM (active)
same,AC50,[3],8.39 µM (active)
same,AC50,INS1,12.5 µM (active)
NCCc1nnc(SCc2ccc(F)cc2)o1,EC50,[1],> 260 µM (inactive)
CS(=O)(=O)N(CC(=O)N/N=C/c1cc([N+](=O)[O-])ccc1Cl)c1ccccc1,EC50,[7],26.4 µM (active)
same,EC50,[8],24.4 µM (active)
